“And” between values parts separate entries of the source, which are not always exact repeats. Equal entries are not always repeated. Records with an inconclusive call do not appear.
System: MX-1 breast xenograft, nude mice, tumor weight T/C
Experiment: NCI In Vivo Anticancer Drug Screen. Data for tumor model Human Mammary Carcinoma MX-1 Xenograft (intrarenal inoculation) in NU/NU Swiss (nude) mice
Details: endpoint: mean tumor weight change, higher = larger tumour
Summary of the method: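 Read-out: treated (T) over vehicle control (C) ratio of survival or tumor size. Dosing in animals carrying the transplanted tumor.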

[1] = dose: 400.0 mg/kg/injection, schedule: Q01DX010 (sc), vehicle: Klucel (hydroxypropylcellulose) (HPC)
[2] = dose: 800.0 mg/kg/injection, schedule: Q01DX010 (sc), vehicle: Klucel (hydroxypropylcellulose) (HPC)
[3] = dose: 1600.0 mg/kg/injection, schedule: Q01DX010 (sc), vehicle: Klucel (hydroxypropylcellulose) (HPC)

COc1cc2cc[n+](C)c(Cc3ccccc3)c2cc1OC
T/C (dose: 18.75 mg/kg/injection, schedule: Q04DX003 (sc), vehicle: Klucel (hydroxypropylcellulose) (HPC)): 90 % of control
T/C (dose: 37.5 mg/kg/injection, schedule: Q04DX003 (sc), vehicle: Klucel (hydroxypropylcellulose) (HPC)): 115 % of control
T/C (dose: 75.0 mg/kg/injection, schedule: Q04DX003 (sc), vehicle: Klucel (hydroxypropylcellulose) (HPC)): 58 % of control

CNC(=O)OCc1c(COC(=O)NC)c(C)n(-c2ccc(OC)cc2)c1C
T/C (dose: 50.0 mg/kg/injection, schedule: Q01DX010 (sc), vehicle: Klucel (hydroxypropylcellulose) (HPC)): 41 % of control
T/C (dose: 50.0 mg/kg/injection, schedule: Q04DX003 (sc), vehicle: Klucel (hydroxypropylcellulose) (HPC)): 110 % of control
T/C (dose: 100.0 mg/kg/injection, schedule: Q01DX010 (sc), vehicle: Klucel (hydroxypropylcellulose) (HPC)): 9 % of control
T/C (dose: 100.0 mg/kg/injection, schedule: Q04DX003 (sc), vehicle: Klucel (hydroxypropylcellulose) (HPC)): 46 % of control
T/C (dose: 200.0 mg/kg/injection, schedule: Q01DX010 (sc), vehicle: Klucel (hydroxypropylcellulose) (HPC)): -52 % of control
T/C [1]: -61 % of control
T/C (dose: 800.0 mg/kg/injection, schedule: Q04DX003 (sc), vehicle: Klucel (hydroxypropylcellulose) (HPC)): -100 % of control
T/C (dose: 1600.0 mg/kg/injection, schedule: Q04DX003 (sc), vehicle: Klucel (hydroxypropylcellulose) (HPC)): -100 % of control

CCCCCC[C@@H](O)C/C=C\CCCCCCCC(=O)OCCO
T/C (dose: 300.0 mg/kg/injection, schedule: Q04DX003 (sc), vehicle: saline): 87 % of control
T/C (dose: 600.0 mg/kg/injection, schedule: Q04DX003 (sc), vehicle: saline): 104 % of control
T/C (dose: 1200.0 mg/kg/injection, schedule: Q04DX003 (sc), vehicle: saline): 96 % of control
T/C (dose: 2400.0 mg/kg/injection, schedule: Q04DX003 (sc), vehicle: saline): 103 % of control

O=[N+]([O-])c1ccc(N(CCO)CCO)c2c1no[n+]2[O-]
T/C (dose: 12.5 mg/kg/injection, schedule: Q04DX003 (ip), vehicle: saline with Tween-80): 101 % of control
T/C (dose: 25.0 mg/kg/injection, schedule: Q04DX003 (ip), vehicle: saline with Tween-80): 108 % of control
T/C (dose: 50.0 mg/kg/injection, schedule: Q04DX003 (ip), vehicle: saline with Tween-80): 75 % of control

CN(C1=NS(=O)(=O)N=C(N(C)c2ccccc2)O1)c1ccccc1
T/C (dose: 300.0 mg/kg/injection, schedule: Q04DX003 (sc), vehicle: Klucel (hydroxypropylcellulose) (HPC)): 102 % of control
T/C (dose: 600.0 mg/kg/injection, schedule: Q04DX003 (sc), vehicle: Klucel (hydroxypropylcellulose) (HPC)): 110 % of control
T/C (dose: 1200.0 mg/kg/injection, schedule: Q04DX003 (sc), vehicle: Klucel (hydroxypropylcellulose) (HPC)): 113 % of control
T/C (dose: 2400.0 mg/kg/injection, schedule: Q04DX003 (sc), vehicle: Klucel (hydroxypropylcellulose) (HPC)): 106 % of control

OC(CBr)C(O)C(O)C(O)CBr (stereo unspecified)
T/C (dose: 15.0 mg/kg/injection, schedule: Q01DX010 (sc), vehicle: Klucel (hydroxypropylcellulose) (HPC)): 39 % of control and 42 % of control
T/C [2]: -100 % of control
T/C [3]: -87 % of control

CNC(=O)/C=C/C1=CN2C(=O)c3ccc(C)c(O)c3NC(OC)C2C1 (stereo unspecified)
T/C (dose: 0.2 mg/kg/injection, schedule: Q04DX003 (sc), vehicle: saline): 82 % of control
T/C (dose: 0.4 mg/kg/injection, schedule: Q04DX003 (ip), vehicle: saline): 18 % of control and 21 % of control
T/C (dose: 1.6 mg/kg/injection, schedule: Q04DX003 (sc), vehicle: saline): 3 % of control

C=C(NC(=O)C(=C)NC(=O)c1csc(C2=NC3c4csc(n4)C4NC(=O)c5csc(n5)C(C(C)(O)C(C)O)NC(=O)C5CSC(=N5)/C(=C/C)NC(=O)C(C(C)O)NC(=O)c5csc(n5)C3(CC2)NC(=O)C(C)NC(=O)C(=C)NC(=O)C(C)NC(=O)C(C(C)CC)NC2C=Cc3c(C(C)O)cc(nc3C2O)C(=O)OC4C)n1)C(N)=O (stereo unspecified)
T/C [1]: 73 % of control
T/C [2]: 98 % of control
T/C [3]: 81 % of control
T/C (dose: 3200.0 mg/kg/injection, schedule: Q01DX010 (sc), vehicle: Klucel (hydroxypropylcellulose) (HPC)): 117 % of control

CCC1CC2CN(CCc3c([nH]c4ccccc34)C(C(=O)OC)(c3cc4c(cc3OC)N(C)C3C(O)(C(=O)OC)C(OC(C)=O)C5(CC)C=CCN6CCC43C65)C2)C1 (stereo unspecified)
T/C (dose: 4.0 mg/kg/injection, schedule: Q04DX003 (sc), vehicle: saline): 36 % of control
T/C (dose: 8.0 mg/kg/injection, schedule: Q04DX003 (sc), vehicle: saline): 4 % of control
T/C (dose: 8.0 mg/kg/injection, schedule: Q04DX003 (sc), vehicle: water): 25 % of control
T/C (dose: 16.0 mg/kg/injection, schedule: Q04DX003 (sc), vehicle: saline): -86 % of control

Source: PubChem BioAssay AID296 (DTP/NCI, 2004)
